Measured values published in the OligoGym collection.
Several values for one entry are separate records, joined by “and”; a condition that tells them apart may be missing. Identical values can stand only once. After the bases stand the sugars from the 5' end (letter, count) and the backbone: PS all phosphorothioate, else s phosphorothioate and o phosphodiester by linkage. Methylation of C is not given here. e = 2'-O-(2-methoxyethyl) (MOE); k = constrained ethyl (cEt); d = 2'-deoxy (DNA)

Target: IRF4
Details: ASO

Sequence | target mRNA inhibition (MM.1R, 1 µM) | target mRNA inhibition (SK-MEL-28, 4 µM) [%] | other results
ACTGCTTGAGGTTTTC (sugars kddddddddddkekek, PS) | 22% |  | 
ACTGCTTGAGGTTTTC (sugars kkdddddddddkdkdk, PS) | 19% |  | 
ACTGGATTGATGTGAT (sugars k3 d10 k3, PS) | 25% and 39% |  | target mRNA inhibition (MM.1R, 0.0625 µM): 2% and 9%; target mRNA inhibition (MM.1R, 0.25 µM): 6% and 20%; target mRNA inhibition (MM.1R, 4 µM): 65% and 69%
ACTGTCCACTGAGTAC (sugars k3 d10 k3, PS) |  | 61 | 
ACTGTTACCGATGCTT (sugars k3 d10 k3, PS) | 43% and 25% |  | target mRNA inhibition (MM.1R, 0.0625 µM): -11%; target mRNA inhibition (MM.1R, 0.25 µM): 4%; target mRNA inhibition (MM.1R, 4 µM): 65%
ACTGTTACCGATGCTT (sugars kdddddddddkekeke, PS) | -2% and 17% |  | 
ACTTAACCCACATCAC (sugars k3 d10 k3, PS) |  | -22 | 
AGAAACCCTCATCACC (sugars k3 d10 k3, PS) |  | -5 | 
AGAAAGAAGCAAGTCG (sugars k3 d10 k3, PS) |  | 37 | 
AGAACGCACGGACGAA (sugars k3 d10 k3, PS) | 1% |  | 
AGAATAAACACCCCTT (sugars k3 d10 k3, PS) |  | 74 | 
AGAGACCATGTTCAGA (sugars k3 d10 k3, PS) | 12% |  | 
AGAGGAATGAGCACTC (sugars k3 d10 k3, PS) | 5% |  | 
AGAGGAATGGCGGATA (sugars k3 d10 k3, PS) |  | 42 | 
AGATCGAGCGGTGAAA (sugars k3 d10 k3, PS) |  | 24 | 
AGATTAATAGTAAGTT (sugars k3 d10 k3, PS) |  | 4 | 
AGATTTACACCGTTGC (sugars k3 d10 k3, PS) | 30% |  | 
AGCAAAACGCAGAGCC (sugars k3 d10 k3, PS) |  | 61 | 
AGCAAGGCCTCTGAGC (sugars k3 d10 k3, PS) |  | 55 | 
AGCAGTAAACGCAAGT (sugars k3 d10 k3, PS) | 27% |  | 
AGCAGTGATGTCAGGT (sugars k3 d10 k3, PS) | 84% and 68% |  | target mRNA inhibition (MM.1R, 0.0625 µM): 1%; target mRNA inhibition (MM.1R, 0.25 µM): 23%; target mRNA inhibition (MM.1R, 4 µM): 92%
AGCAGTGATGTCAGGT (sugars kkdddddddddkekek, PS) | 66% and 67% and 64% |  | target mRNA inhibition (MM.1R, 0.0625 µM): 34%; target mRNA inhibition (MM.1R, 0.25 µM): 54%; target mRNA inhibition (MM.1R, 4 µM): 79%

Sequence | target mRNA inhibition (MM.1R, 1 µM) | target mRNA inhibition (SK-MEL-28, 4 µM) [%] | other results
AGCATAGCATTATCTA (sugars k3 d10 k3, PS) |  | 34 | 
AGCATCACTATTAAGA (sugars k3 d10 k3, PS) | 10% | 72 | target mRNA inhibition (MM.1R, 0.0625 µM): -5%; target mRNA inhibition (MM.1R, 0.074 µM): 2%; target mRNA inhibition (MM.1R, 0.222 µM): 10%; target mRNA inhibition (MM.1R, 0.25 µM): 1%; target mRNA inhibition (MM.1R, 0.666 µM): 10%; target mRNA inhibition (MM.1R, 2 µM): 11%; target mRNA inhibition (MM.1R, 4 µM): 26%
AGCATCCGCTTGGAGA (sugars k3 d10 k3, PS) |  | 37 | 
AGCATTATCTACCTCA (sugars k3 d10 k3, PS) |  | 78 | 
AGCATTTTATCATCCG (sugars e1 k2 d9 k2 e2, PS) | 43% |  | 
AGCATTTTATCATCCG (sugars k2 d9 e3 k2, PS) | 28% |  | 
AGCATTTTATCATCCG (sugars k3 d9 k3 e1, PS) | 66% |  | target mRNA inhibition (MM.1R, 0.074 µM): 17%; target mRNA inhibition (MM.1R, 0.222 µM): 32%; target mRNA inhibition (MM.1R, 0.666 µM): 61%; target mRNA inhibition (MM.1R, 2 µM): 83%
AGCATTTTATCATCCG (sugars kdddddddddkekeke, PS) | 24% |  | 
AGCATTTTATCATCCG (sugars kkddddddddddkeke, PS) | 33% |  | 
AGCATTTTATCATCCG (sugars kkdddddddddkdkdk, PS) | 11% |  | 
AGCATTTTATCATCCG (sugars kkdddddddddkekek, PS) | 39% |  | 
AGCCAGAGGTTCGCTG (sugars k3 d10 k3, PS) |  | 25 | 
AGCCAGTGCCAGTTCC (sugars k3 d10 k3, PS) |  | 39 | 
AGCCGCTACAGCTTCT (sugars k3 d10 k3, PS) |  | -8 | 
AGCCTTCCTGCTCAGA (sugars k3 d10 k3, PS) |  | 55 | 
AGCGAAGGGTAAGGCG (sugars k3 d10 k3, PS) |  | 14 | 
AGCTAACTGGCCTCAA (sugars k3 d10 k3, PS) |  | 23 | 
AGCTACGCAATCTTCT (sugars k3 d10 k3, PS) |  | 47 | 
AGCTCATCTGCCAATC (sugars k3 d10 k3, PS) |  | 33 | 
AGCTCCACTGTTAAAG (sugars k3 d10 k3, PS) |  | 44 | 
AGCTCCTACATACATT (sugars k3 d10 k3, PS) |  | 44 | 
AGCTCTAGACAGAGGC (sugars k3 d10 k3, PS) |  | 35 | 

Sequence | target mRNA inhibition (MM.1R, 1 µM) | target mRNA inhibition (SK-MEL-28, 4 µM) [%] | other results
AGCTGACCATGTTACA (sugars k3 d10 k3, PS) |  | -19 | 
AGCTGATGGAGAAACG (sugars k3 d10 k3, PS) |  | 10 | 
AGCTGGTAGGTCAAAC (sugars k3 d10 k3, PS) |  | -5 | 
AGCTTCTTTGAAGTGC (sugars k3 d10 k3, PS) |  | 62 | 
AGCTTGATAAAGGCTG (sugars k3 d9 k3 e1, PS) | 2% |  | 
AGGAAACTTGGAGCGC (sugars k3 d10 k3, PS) | 15% | 77 | target mRNA inhibition (MM.1R, 0.0625 µM): -1%; target mRNA inhibition (MM.1R, 0.25 µM): 2%; target mRNA inhibition (MM.1R, 4 µM): 42%
AGGAACGAAGAGCAGG (sugars k3 d10 k3, PS) |  | 43 | 
AGGAACTGACCTAACT (sugars k3 d10 k3, PS) |  | 31 | 
AGGACAATGGAGATAC (sugars k3 d10 k3, PS) |  | 72 | 
AGGACACTCACAGGCG (sugars k3 d10 k3, PS) | 8% |  | 
AGGCACATCAATGTTT (sugars kdddddddddkekeke, PS) | -9% and 3% |  | 
AGGCACCGCACTCCGG (sugars k3 d10 k3, PS) | -13% |  | 
AGGCACTTACTAGGTG (sugars k3 d10 k3, PS) |  | 54 | 
AGGCAGTTGTGCCGTC (sugars k3 d10 k3, PS) |  | -62 | 
AGGCTCGGGCAGAGCC (sugars k3 d10 k3, PS) |  | 1 | 
AGGGACCGCGCCAGGC (sugars k3 d10 k3, PS) | 0% |  | 
AGGTAAAGGCACATTC (sugars k3 d10 k3, PS) |  | 19 | 
AGGTAATCTGTATAGT (sugars k3 d10 k3, PS) |  | 62 | 
AGTAACTGACACGCAC (sugars k3 d10 k3, PS) |  | 51 | 
AGTACAGTCCACTCCA (sugars k3 d10 k3, PS) | 7% |  | 
AGTATGAGAAACGGCC (sugars k2 d9 e3 k2, PS) | 16% |  | 
AGTATGAGAAACGGCC (sugars kdddddddddkekeke, PS) | 4% |  | 

Sequence | target mRNA inhibition (MM.1R, 1 µM) | target mRNA inhibition (SK-MEL-28, 4 µM) [%] | other results
AGTCAAGCCCCAAGCC (sugars k3 d10 k3, PS) |  | 13 | 
AGTCAATCACTGGAGA (sugars k3 d10 k3, PS) | 16% and 22% | 60 | target mRNA inhibition (MM.1R, 0.0625 µM): 1% and -8%; target mRNA inhibition (MM.1R, 0.074 µM): 0%; target mRNA inhibition (MM.1R, 0.222 µM): -15%; target mRNA inhibition (MM.1R, 0.25 µM): 4% and 5%; target mRNA inhibition (MM.1R, 0.666 µM): -7%; target mRNA inhibition (MM.1R, 2 µM): 9%; target mRNA inhibition (MM.1R, 4 µM): 40% and 45%
AGTCACCTGGAATCTT (sugars k3 d10 k3, PS) |  | 47 | 
AGTGAAGTCGGGAGAT (sugars k3 d10 k3, PS) | 8% |  | 
AGTGACTTGCATCCAT (sugars kkddddddddddkeke, PS) | 50% |  | 
AGTGACTTGCATCCAT (sugars kkdddddddddkdkdk, PS) | 22% |  | 
AGTGATAGGTATACTT (sugars k3 d10 k3, PS) |  | 39 | 
AGTTGTAAATGAGTCG (sugars k2 d9 e3 k2, PS) | 66% |  | target mRNA inhibition (H929, 0.04 µM): 57% and 42%; target mRNA inhibition (KMS11, 0.2 µM): 86% and 92%; target mRNA inhibition (MM.1R, 0.074 µM): 10%; target mRNA inhibition (MM.1R, 0.222 µM): 25%; target mRNA inhibition (MM.1R, 0.666 µM): 55%; target mRNA inhibition (MM.1R, 2 µM): 77%
AGTTGTAAATGAGTCG (sugars kddddddddddkekek, PS) | 44% |  | 
AGTTGTAAATGAGTCG (sugars kkdddddddddekeke, PS) | 73% |  | target mRNA inhibition (MM.1R, 0.074 µM): 17%; target mRNA inhibition (MM.1R, 0.222 µM): 44%; target mRNA inhibition (MM.1R, 0.666 µM): 67%; target mRNA inhibition (MM.1R, 2 µM): 86%
AGTTTGTGAAGCATCC (sugars k3 d10 k3, PS) |  | 69 | 
ATAAACACCCCTTCTT (sugars k3 d10 k3, PS) |  | 30 | 
ATAACACGGTGTTGAC (sugars k3 d10 k3, PS) | 21% |  | 
ATAACCGGTAGAGTGA (sugars k3 d10 k3, PS) |  | 50 | 
ATAATATAGTTGTCTG (sugars k3 d10 k3, PS) |  | 35 | 
ATACACACCCTCGGGC (sugars k3 d10 k3, PS) | -10% |  | 
ATAGAATTAGGTGCTT (sugars k3 d10 k3, PS) | 25% | 64 | target mRNA inhibition (MM.1R, 0.0625 µM): -5%; target mRNA inhibition (MM.1R, 0.074 µM): -1%; target mRNA inhibition (MM.1R, 0.222 µM): 33%; target mRNA inhibition (MM.1R, 0.25 µM): 6%; target mRNA inhibition (MM.1R, 0.666 µM): 11%; target mRNA inhibition (MM.1R, 2 µM): 8%; target mRNA inhibition (MM.1R, 4 µM): 56%
ATAGAGCATCACTATT (sugars k3 d10 k3, PS) | 0% |  | 
ATAGATCTGTGGTAAT (sugars k3 d10 k3, PS) |  | 38 | 
ATAGCTGAGCTGATCA (sugars k3 d10 k3, PS) | 30% |  | 
